Laboratory results from patent publication US7615560B2, “Thienopyrimidines as cooling agents” (Conopco, Inc., priority 2004, dated 2009).

Biological target: T1, human TRPM8 channel (Homo sapiens, UniProt Q7Z2W7)
T1 construct: The open reading frame of human cDNA TRPM8 from position 41-3355bp was amplified; expressed in transfected cells
Assay: Intracellular calcium (fluo-4 fluorescence) assay in HEK 293 cells stably expressing human TRPM8
Format: cell-based
Conditions: fluo-4 calcium fluorescence, concentration producing one-half of maximal response (DFmax)
Excerpt: Humans can detect changes in temperature from noxious cold (<8 C) to noxious heat (>52 C) due to activation of sensory nerve fibers. “The principal temperature sensors in the sensory nerve fibers are members of a family of transient receptor potential (TRP) cation channels” (Voets et al., 2004). In humans the sensation of cooling is elicited by activation of channel TRPM8, which is activated at temperatures below 28 C (Voets et al., 2004). Furthermore human TRPM8 is activated by compounds such as menthol (Brauchi et al., Proc. Natl. Acad. Sci. USA, 2004, Oct. 26; 101 (43):15494-9; Voets et al., Nature, 2004, 430 (7001): 748-54). […]
The open reading frame of human cDNA TRPM8 from position 41-3355bp was amplified from a human prostate cDNA library (Stratagene) using primers […] and […] as previously described previously (Tsavalier et al., 2001). […]
Cells stably expressing the human TRPM8 were seeded in a 96 well plate (coated with polylysine) at a density of 10^5 cells /well in 200 μl of media. […] The dye was then removed and the cells were incubated in a Tyrodes buffer (containing 1 mM probenicide, pH 7.4) pre-equilibrated at a certain temperature (i.e 37° C.) and the intracellular calcium levels were monitored at the same temperature, using the Novostar plate reader. The cells in each well were illuminated at 480 nm, and the fluorescent light emitted at 510 nm was measured. […]

T1 sequence (Q7Z2W7 whole entry): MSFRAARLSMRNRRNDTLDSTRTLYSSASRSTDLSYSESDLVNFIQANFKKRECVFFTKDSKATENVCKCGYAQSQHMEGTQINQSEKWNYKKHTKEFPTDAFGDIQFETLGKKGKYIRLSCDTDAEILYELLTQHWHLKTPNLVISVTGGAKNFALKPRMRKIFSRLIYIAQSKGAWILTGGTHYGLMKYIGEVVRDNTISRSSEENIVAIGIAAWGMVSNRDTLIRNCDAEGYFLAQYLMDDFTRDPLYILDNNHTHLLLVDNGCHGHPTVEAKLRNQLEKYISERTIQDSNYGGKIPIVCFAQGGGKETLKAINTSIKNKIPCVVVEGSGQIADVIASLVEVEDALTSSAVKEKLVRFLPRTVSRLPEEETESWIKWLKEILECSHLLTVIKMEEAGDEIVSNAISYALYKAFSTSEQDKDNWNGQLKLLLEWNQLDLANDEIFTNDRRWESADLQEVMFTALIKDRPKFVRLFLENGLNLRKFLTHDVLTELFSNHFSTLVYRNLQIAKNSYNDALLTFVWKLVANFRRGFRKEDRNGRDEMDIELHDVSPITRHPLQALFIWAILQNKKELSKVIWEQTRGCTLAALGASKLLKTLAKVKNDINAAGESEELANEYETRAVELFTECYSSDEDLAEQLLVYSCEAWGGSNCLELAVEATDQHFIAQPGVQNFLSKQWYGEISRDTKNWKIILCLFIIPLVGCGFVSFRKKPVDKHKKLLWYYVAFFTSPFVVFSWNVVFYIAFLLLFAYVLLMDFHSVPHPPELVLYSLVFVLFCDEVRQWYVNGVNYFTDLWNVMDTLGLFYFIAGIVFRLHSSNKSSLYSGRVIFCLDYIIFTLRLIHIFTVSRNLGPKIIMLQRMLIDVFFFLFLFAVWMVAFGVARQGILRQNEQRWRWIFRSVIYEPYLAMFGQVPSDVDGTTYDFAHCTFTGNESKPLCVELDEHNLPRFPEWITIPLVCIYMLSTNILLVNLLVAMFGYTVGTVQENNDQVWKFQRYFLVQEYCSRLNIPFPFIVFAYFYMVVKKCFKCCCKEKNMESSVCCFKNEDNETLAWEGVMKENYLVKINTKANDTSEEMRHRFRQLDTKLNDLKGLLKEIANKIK

EC50: 6.5 µM
SMILES: CCCn1cnc2sc3c(c2c1=N)CCCC3 [Example 1, 3-propyl-5,6,7,8-tetrahydro-3H-benzo[4,5]-thieno[2,3-d]pyrimidin-4-ylidene amine]
